Structures are written as SMILES. “And” between values parts separate entries of the source, which are not always exact repeats. Equal entries are not always repeated.

The target in one data set is T1, MAO-B (Homo sapiens, UniProt P27338).
T1 construct: purchased Eurofins, France (contract screening)
T1 sequence (P27338 1-520): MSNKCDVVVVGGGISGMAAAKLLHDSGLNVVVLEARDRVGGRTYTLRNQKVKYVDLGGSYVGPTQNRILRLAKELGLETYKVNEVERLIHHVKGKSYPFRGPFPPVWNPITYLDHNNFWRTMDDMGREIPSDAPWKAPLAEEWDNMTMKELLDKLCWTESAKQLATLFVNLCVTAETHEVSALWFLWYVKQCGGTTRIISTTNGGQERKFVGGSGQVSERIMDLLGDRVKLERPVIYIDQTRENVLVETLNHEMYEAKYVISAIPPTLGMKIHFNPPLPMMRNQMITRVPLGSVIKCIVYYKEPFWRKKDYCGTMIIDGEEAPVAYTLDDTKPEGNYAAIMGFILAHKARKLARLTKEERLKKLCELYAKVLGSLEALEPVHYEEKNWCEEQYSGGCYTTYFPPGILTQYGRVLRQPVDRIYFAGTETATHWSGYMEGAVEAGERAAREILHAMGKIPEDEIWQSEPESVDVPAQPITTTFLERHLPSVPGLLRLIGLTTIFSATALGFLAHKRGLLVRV
Nature of the data set: In vitro pharmacology screen (Eurofins): MAO-B. As to conditions: read-out: inhibition of MAO-B binding. As for the experimental part:
OXD-2314 binding to CNS receptors was calculated as a percentage of inhibition of a receptor-specific radioligand. Enzyme inhibition was calculated as the percent inhibition of baseline enzyme activity where inhibition above 50% was considered significant. […] Norepinephrine transports are expressed in low concentration throughout the brain and its relative concentration are not affected by aging or neurodegeneration. 5-lipoxygenase may be overexpressed in aging brain and play some role in neurodegeneration, which could be necessary to further investigate in vivo[42]. Off-target binding to monoamine oxidase A and B (MAO-A and MAO-B) has been seen with some tau PET radiotracers[43],[44].

The target of data set [1] is T2, 4R-tau aggregates in CBD tissue (Homo sapiens, UniProt P10636).
T2 construct: tissue Neurodegenerative Disease Brain Bank at UCSF; host or cells: human CBD brain, middle frontal gyrus (pool of three) or putamen (one subject)
T2 sequence (P10636 1-441 isoform P10636-8): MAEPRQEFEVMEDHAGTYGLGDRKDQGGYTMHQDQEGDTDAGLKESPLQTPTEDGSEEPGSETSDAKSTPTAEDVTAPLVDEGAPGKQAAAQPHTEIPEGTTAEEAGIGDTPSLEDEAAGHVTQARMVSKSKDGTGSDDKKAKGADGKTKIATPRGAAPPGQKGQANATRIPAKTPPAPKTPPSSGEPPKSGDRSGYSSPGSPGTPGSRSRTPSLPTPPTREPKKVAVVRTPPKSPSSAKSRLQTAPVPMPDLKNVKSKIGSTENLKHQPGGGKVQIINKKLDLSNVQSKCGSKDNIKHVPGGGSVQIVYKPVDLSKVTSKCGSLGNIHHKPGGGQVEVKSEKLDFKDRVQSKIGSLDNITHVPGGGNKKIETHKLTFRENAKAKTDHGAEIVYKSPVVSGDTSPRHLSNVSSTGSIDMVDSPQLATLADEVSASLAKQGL
The data set can be described thus: Competition binding vs [^3H]OXD-2314 in CBD tissue. As for the experimental part: (§1) Fresh frozen, autopsy-confirmed human PD anterior cingulate cortex brain tissue blocks (1 cm^3) were obtained from Dr. Thomas Beach at Banner/Sun Health AZ with funding from the Michael J. Fox Foundation and contained frequent α-synuclein aggregates and no other detectable aggregated amyloid species. The frozen tissue blocks were prepared for the binding assays as previously described[47],[48], except that equal quantities of the homogenates of three AD brains (AD1-AD3, Table S1) were pooled, as were homogenates from three PSP brains (PSP1-PSP3), three CBD brains (CBD1-CBD3), three Pick’s brains (PiD1-PiD3), and 4 PD brains (PD1-PD4) in order to help minimize the inter-subject variability within the different neuropathological groups. Individual subcortical brain tissues from a PSP subject (PSP4) and a CBD subject (CBD4), as well as with the middle frontal cortex of a control subject, were prepared for the binding assays as previously described[47],[48].
(§2) The equilibrium inhibition constant (Ki) values of the unlabeled compounds were determined versus tritium-labeled radioligands using published methods.

The target in data set [2] is T2, 4R-tau aggregates in CBD tissue. Nature of the data set: Competition binding vs [^3H]OXD-2115 in CBD tissue. As to conditions: vs [^3H]OXD-2115, CBD tissue, n = 1. As for the experimental part:
as §1, §2

A short description of data set [3]: Dynamic brain PET-CT with [^18F]OXD-2314 in rats. Format: in vivo. As for the experimental part: Eight rats were used in preclinical PET scans with [^18F]OXD-2314: two for dynamic brain imaging, and six for whole-body biodistribution of radioactivity and dose estimation. Another five rats were used for radiometabolite analysis in brain homogenates and blood plasma. Dynamic PET-CT imaging in healthy wild-type (wt) rats were performed following intravenous administration of [^18F]OXD-2314 (17.9 and 23.8 MBq, n = 2, one female and one male). Radioactivity reached an initial peak of 2.3 standardized uptake value (SUV) within two minutes in whole brain, followed by a steady washout of radioactivity in the brain to below 0.3 SUV at the end of the 120 min acquisition time (Fig. 4). Distribution of radioactivity was homogenous among brain regions, but with the female rat having slower clearance of radioactivity from the brain and thus higher overall brain radioactivity than the male rat.
A total of 8 healthy adult rats (Sprague-Dawley, 384 ± 56 g; 4/4 M/F) underwent PET imaging following bolus injection of [^18F]OXD-2314 (20.5 ± 4.1 MBq), with two animals (M/F) scanned for 120 min with the head in the centre of PET field-of-view (FOV) whereas six animals (3/3 M/F) scanned for 180 min at three bed positions (head-to-bottom) with 15 frames (2×15 s, 2×30 s, 2×60 s, 1×120 s, 1×180 s, 2×240 s, 2×300 s, and 3×600 s) to cover the whole body. PET images were acquired using a nanoScan™ PET/CT scanner (Mediso, Budapest, Hungary) with rats anesthetized under isoflurane in O2 (1.5–2%, 1 L/min) throughout the imaging session and monitored closely for body temperature and respiration rate. […] Normalized cumulated activities of each organ were calculated using trapezoidal integration of the area under the TACs plus extrapolation of the TAC to infinity with natural decay of the radiotracer. […] SUV were calculated by normalizing regional radioactivity for injected radioactivity and body weight.

As to `COC1CCCN(c2ccc(-c3cc4cc(O)ccc4[nH]3)c(F)n2)C1` (stereo not drawn) [OXD-2314, 2-(2-fluoro-6-(3-methoxypiperidin-1-yl)pyridin-3-yl)-1H-indol-5-ol], on MAO-B, the inhibition at 10 µM was determined as 37%. Also, the Ki was determined as 6.5 ± 0.4 nM in data set [1] and 4.4 nM in data set [2].

As to `CO[C@H]1CCCN(c2ccc(-c3cc4cc(O)ccc4[nH]3)c([18F])n2)C1` [[^18F]OXD-2314], the “ratio initial maximum to late minimum brain radioactivity” value in data set [3] (rats) is ~ 8. The “whole brain radioactivity at end of acquisition” value in data set [3] (rats, end of the 120 min acquisition) is “below 0.3 SUV”. For the same molecule, in data set [3] (wild-type rats, i.v., within two minutes, n = 2), the “initial peak whole brain uptake (SUV)” value is 2.3 SUV and > 2 SUV.

As a reminder, the inhibition is the relative decrease from the control value, in per cent. Usually Ki stands for the equilibrium dissociation constant of an inhibitor or competing ligand from its target. A lower Ki goes with a stronger hold on the target.

The values are drawn from PMC11178805, “Ligand-based design of [^18F]OXD-2314 for PET imaging in non-Alzheimer’s disease tauopathies” (Nature Communications, 2024).
